Data as given in patent US20260191836A1, “SOLID PREPARATION CONTAINING OXIDIZED CLOPIDOGREL AND PREPARATION METHOD THEREFOR” (CHENGDU SHIBEIKANG BIOMEDICAL TECHNOLOGY CO., LTD., priority 2022, published 2026).
“Also recorded” adds a separate entry of the source.

Test: Properties of the drug substance (solubility, BCS class, stability)
Format: physicochemical

## COC(=O)[C@H](c1ccccc1Cl)N1CC[C@@H]2SC(=O)C=C2C1 [(7aS, 2′S)-2-oxo-clopidogrel, methyl (S)-2-(2-chlorophenyl)-2-((S)-2-oxo-2,6,7,7a-tetrahydrothieno[3,2-c]pyridin-5 (4H)-yl)acetate]
  BCS biopharmaceutical classification: low-solubility and high-permeability
  stability of the drug substance (in words): extremely prone to oxidative degradation; also recorded: instability under high temperature, acid and alkali conditions
acetonitrile
  solubility in acetonitrile: soluble
methanol
  solubility in methanol: slightly soluble
water
  solubility in water: almost insoluble
